Results: patent US20260166128A1, “HUMAN AMYLIN ANALOG, AND DERIVATIVE THEREOF AND USE THEREOF” (priority 2022, published 2026)
Numbered stars: 1 amine (or outer) side, 2 acyl side, 3 side chain; on linkers, the order of the positions; unused ones are H or OH. Bridge positions count the residues as written; N and C are the ends. Square brackets hold non-standard residues; d marks the D form. Side chains are listed from the residue outwards. Peptide text beside a SMILES is read from it. * marks the point of attachment. C20 diacid = O=C(O)CCCCCCCCCCCCCCCCCCC(=O)*; C18 diacid = O=C(O)CCCCCCCCCCCCCCCCC(=O)*; γGlu = O=C(O)[C@H](CCC(=O)[*:2])N[*:1]; Hyp = O=C(O)[C@@H]1C[C@@H](O)CN1; Orn = NCCC[C@H](N)C(=O)O; Aze = O=C(O)[C@@H]1CCN1; AEEA = NCCOCCOCC(=O)O

Columns and labels:
[1] = biological target: T1, human amylin receptor (Homo sapiens, UniProt O60896+P30988); assay: Luciferase assay of amylin derivatives in amylin receptor/CRE-luc CHO cell line; assay type: cell-based; conditions: CHO-K1/Ga15/AMY3 CRE-luc cells, 24 hours incubation, F12 medium containing 10% FBS; read-out: EC50
T1 construct: host or cells: CHO-K1/Ga15/AMY3 cells, further stably transfected with a CRE-luciferase plasmid
T1 sequence (P30988 25-474): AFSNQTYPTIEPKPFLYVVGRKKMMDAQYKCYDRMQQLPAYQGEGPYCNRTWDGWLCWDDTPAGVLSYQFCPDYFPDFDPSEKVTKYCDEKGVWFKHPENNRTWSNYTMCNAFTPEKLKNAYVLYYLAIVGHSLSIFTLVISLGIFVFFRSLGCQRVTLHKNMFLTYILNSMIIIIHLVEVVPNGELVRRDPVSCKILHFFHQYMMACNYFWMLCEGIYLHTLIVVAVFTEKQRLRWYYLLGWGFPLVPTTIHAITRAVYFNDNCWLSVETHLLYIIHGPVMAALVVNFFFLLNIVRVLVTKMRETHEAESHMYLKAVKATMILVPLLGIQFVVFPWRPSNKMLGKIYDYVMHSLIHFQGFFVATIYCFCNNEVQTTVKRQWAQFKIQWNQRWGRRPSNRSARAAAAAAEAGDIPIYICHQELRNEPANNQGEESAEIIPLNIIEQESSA
T1 sequence (O60896 24-148 partner): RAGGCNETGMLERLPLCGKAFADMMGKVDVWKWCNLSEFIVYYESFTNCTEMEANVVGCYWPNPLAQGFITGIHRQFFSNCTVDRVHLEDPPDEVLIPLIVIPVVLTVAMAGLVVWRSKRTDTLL
Protocol: The experiment was intended to detect the activity or efficacy of the amylin derivatives on a human amylin receptor in vitro by luciferase assay.
50 μL of growth medium (F12 medium containing 10% FBS) was added into each well of a white 96-well plate, and the stably transfected amylin/CRE-lue CHO cells were inoculated into the white 96-well plate at a density of about 20,000 cells/well for activity determination.

[2] = Freeze-thaw stability of derivatives (freeze-thaw yield by liquid chromatography); assay type: physicochemical; conditions: for Dissolution property: appearance after dissolution at 0.2 mg/ml in 20 mM phosphate buffer solution (PB) (pH 7.0); for Freeze storage property: appearance after overnight storage at −20° C. and thawing to room temperature, 0.2 mg/ml in 20 mM PB (pH 7.0); for Freeze storage yield: concentration of polypeptide after freezing and thawing / concentration before, by liquid chromatography, −20° C. overnight
Outline: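 Lyophilised peptide derivative dissolved at 0.2 mg/ml in 20 mM phosphate buffer, pH 7.0, frozen overnight at −20° C, then thawed at room temperature. Peptide concentration before and after freeze-thaw measured by reversed-phase HPLC on centrifuged supernatant; yield = post-thaw/pre-thaw concentration.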

In the case of `CC[C@H](C)[C@H](NC(=O)[C@@H]1CCCN1C(=O)CNC(=O)[C@H](CC(C)C)NC(=O)[C@H](CC(N)=O)NC(=O)[C@H](CC(N)=O)NC(=O)[C@H](CCCCNC(=O)COCCOCCNC(=O)CC[C@H](NC(=O)CCCCCCCCCCCCCCCCC(=O)O)C(=O)O)NC(=O)[C@H](CO)NC(=O)[C@H](Cc1c[nH]cn1)NC(=O)[C@H](CCCNC(=N)N)NC(=O)[C@H](CC(C)C)NC(=O)[C@H](Cc1ccccc1)NC(=O)[C@H](CC(=O)O)NC(=O)[C@H](C)NC(=O)[C@H](CC(C)C)NC(=O)[C@H](CCCNC(=N)N)NC(=O)[C@H](CCC(N)=O)NC(=O)[C@@H](NC(=O)[C@H](C)NC(=O)[C@@H]1CSSC[C@H](NC(=O)[C@@H](N)CCCNC(=N)N)C(=O)N[C@@H](CC(N)=O)C(=O)N[C@@H]([C@@H](C)O)C(=O)N[C@@H](C)C(=O)N[C@@H]([C@@H](C)O)C(=O)N1)[C@@H](C)O)C(=O)N[C@@H](CC(C)C)C(=O)N1CCC[C@H]1C(=O)N1CCC[C@H]1C(=O)N[C@H](C(=O)N[C@@H](CC(N)=O)C(=O)N[C@H](C(=O)NCC(=O)N[C@@H](CO)C(=O)N[C@@H](CC(N)=O)C(=O)N[C@H](C(=O)N1C[C@H](O)C[C@H]1C(N)=O)[C@@H](C)O)C(C)C)[C@@H](C)O` [PD117] (H-RCNTATCATQRLADFLRHSK([AEEA-γGlu-C18 diacid])NNLGPILPPTNVGSNT[Hyp]-NH2; disulfide 2-7 (inferred); N-terminus assumed), the EC50 [1] is reported as 0.014 nM, the Dissolution property [2] is reported as “Clear” and the Freeze storage property [2] is reported as “Clear”. The Freeze storage yield [2] was 93.49%.

For `CC[C@H](C)[C@H](NC(=O)[C@@H]1CCCN1C(=O)CNC(=O)[C@H](CC(C)C)NC(=O)[C@H](CCCCNC(=O)COCCOCCNC(=O)COCCOCCNC(=O)CC[C@H](NC(=O)CCCCCCCCCCCCCCCCCCC(=O)O)C(=O)O)NC(=O)[C@H](CC(N)=O)NC(=O)[C@H](CO)NC(=O)[C@H](CO)NC(=O)[C@H](Cc1c[nH]cn1)NC(=O)[C@H](CCCNC(=N)N)NC(=O)[C@H](CC(C)C)NC(=O)[C@H](Cc1ccccc1)NC(=O)[C@H](CCC(=O)O)NC(=O)[C@H](C)NC(=O)[C@H](CC(C)C)NC(=O)[C@H](CCCNC(=N)N)NC(=O)[C@H](CCC(N)=O)NC(=O)[C@@H](NC(=O)[C@H](C)NC(=O)[C@@H]1CSSC[C@H](NC(=O)[C@@H](N)CCCNC(=N)N)C(=O)N[C@@H](CC(N)=O)C(=O)N[C@@H]([C@@H](C)O)C(=O)N[C@@H](C)C(=O)N[C@@H]([C@@H](C)O)C(=O)N1)[C@@H](C)O)C(=O)N[C@@H](CC(C)C)C(=O)N1CCC[C@H]1C(=O)N1CCC[C@H]1C(=O)N[C@H](C(=O)N[C@@H](CC(N)=O)C(=O)N[C@H](C(=O)NCC(=O)N[C@@H](CO)C(=O)N[C@@H](CC(N)=O)C(=O)N[C@H](C(=O)N1CCC[C@H]1C(N)=O)[C@@H](C)O)C(C)C)[C@@H](C)O` [PD002] (H-RCNTATCATQRLAEFLRHSSNK([AEEA-AEEA-γGlu-C20 diacid])LGPILPPTNVGSNTP-NH2; disulfide 2-7 (inferred); N-terminus assumed), the EC50 [1] was 0.119 nM, the Dissolution property [2] was “Clear” and the Freeze storage property [2] was “Clear”.

In the case of `CC[C@H](C)[C@H](NC(=O)[C@@H]1CCCN1C(=O)[C@H](CCCCNC(=O)COCCOCCNC(=O)COCCOCCNC(=O)CC[C@H](NC(=O)CCCCCCCCCCCCCCCCCCC(=O)O)C(=O)O)NC(=O)[C@H](CC(C)C)NC(=O)[C@H](CC(N)=O)NC(=O)[C@H](CC(N)=O)NC(=O)[C@H](CO)NC(=O)[C@H](CO)NC(=O)[C@H](Cc1c[nH]cn1)NC(=O)[C@H](CCCNC(=N)N)NC(=O)[C@H](CC(C)C)NC(=O)[C@H](Cc1ccccc1)NC(=O)[C@H](CCC(=O)O)NC(=O)[C@H](C)NC(=O)[C@H](CC(C)C)NC(=O)[C@H](CCCNC(=N)N)NC(=O)[C@H](CCC(N)=O)NC(=O)[C@@H](NC(=O)[C@H](C)NC(=O)[C@@H]1CSSC[C@H](NC(=O)[C@@H](N)CCCNC(=N)N)C(=O)N[C@@H](CC(N)=O)C(=O)N[C@@H]([C@@H](C)O)C(=O)N[C@@H](C)C(=O)N[C@@H]([C@@H](C)O)C(=O)N1)[C@@H](C)O)C(=O)N[C@@H](CC(C)C)C(=O)N1CCC[C@H]1C(=O)N1CCC[C@H]1C(=O)N[C@H](C(=O)N[C@@H](CC(N)=O)C(=O)N[C@H](C(=O)NCC(=O)N[C@@H](CO)C(=O)N[C@@H](CC(N)=O)C(=O)N[C@H](C(=O)N1CCC[C@H]1C(N)=O)[C@@H](C)O)C(C)C)[C@@H](C)O` [PD004] (H-RCNTATCATQRLAEFLRHSSNNLK([AEEA-AEEA-γGlu-C20 diacid])PILPPTNVGSNTP-NH2; disulfide 2-7 (inferred); N-terminus assumed), the EC50 [1] is reported as 0.102 nM, the Dissolution property [2] is reported as “Clear” and the Freeze storage property [2] is reported as “Clear”.

For `CC[C@H](C)[C@H](NC(=O)[C@@H]1CCCN1C(=O)[C@H](CCCCNC(=O)CC[C@H](NC(=O)CCCCCCCCCCCCCCCCCCC(=O)O)C(=O)O)NC(=O)[C@H](CC(C)C)NC(=O)[C@H](CC(N)=O)NC(=O)[C@H](CC(N)=O)NC(=O)[C@H](CO)NC(=O)[C@H](CO)NC(=O)[C@H](Cc1c[nH]cn1)NC(=O)[C@H](CCCNC(=N)N)NC(=O)[C@H](CC(C)C)NC(=O)[C@H](Cc1ccccc1)NC(=O)[C@H](CC(=O)O)NC(=O)[C@H](C)NC(=O)[C@H](CC(C)C)NC(=O)[C@H](CCCNC(=N)N)NC(=O)[C@H](CCC(N)=O)NC(=O)[C@@H](NC(=O)[C@H](C)NC(=O)[C@@H]1CSSC[C@H](NC(=O)[C@@H](N)CCCNC(=N)N)C(=O)N[C@@H](CC(N)=O)C(=O)N[C@@H]([C@@H](C)O)C(=O)N[C@@H](C)C(=O)N[C@@H]([C@@H](C)O)C(=O)N1)[C@@H](C)O)C(=O)N[C@@H](CC(C)C)C(=O)N1CCC[C@H]1C(=O)N1CCC[C@H]1C(=O)N[C@H](C(=O)N[C@@H](CC(N)=O)C(=O)N[C@H](C(=O)NCC(=O)N[C@@H](CO)C(=O)N[C@@H](CC(N)=O)C(=O)N[C@H](C(=O)N1CC[C@H]1C(N)=O)[C@@H](C)O)C(C)C)[C@@H](C)O` [PD060] (H-RCNTATCATQRLADFLRHSSNNLK([γGlu-C20 diacid])PILPPTNVGSNT[Aze]-NH2; disulfide 2-7 (inferred)), the EC50 [1] was 0.246 nM, the Dissolution property [2] was “Clear” and the Freeze storage property [2] was “Clear”. It also gave a Freeze storage yield [2] of 104.35%.

In the case of `CC[C@H](C)[C@H](NC(=O)[C@@H]1CCCN1C(=O)[C@H](CCCCNC(=O)CC[C@H](NC(=O)CCCCCCCCCCCCCCCCCCC(=O)O)C(=O)O)NC(=O)[C@H](CC(C)C)NC(=O)[C@H](CC(N)=O)NC(=O)[C@H](CC(N)=O)NC(=O)[C@H](CO)NC(=O)[C@H](CO)NC(=O)[C@H](Cc1c[nH]cn1)NC(=O)[C@H](CCCN)NC(=O)[C@H](CC(C)C)NC(=O)[C@H](Cc1ccccc1)NC(=O)[C@H](CCC(=O)O)NC(=O)[C@H](C)NC(=O)[C@H](CC(C)C)NC(=O)[C@H](CCCNC(=N)N)NC(=O)[C@H](CCC(N)=O)NC(=O)[C@@H](NC(=O)[C@H](C)NC(=O)[C@@H]1CSSC[C@H](NC(=O)[C@@H](N)CCCNC(=N)N)C(=O)N[C@@H](CC(N)=O)C(=O)N[C@@H]([C@@H](C)O)C(=O)N[C@@H](C)C(=O)N[C@@H]([C@@H](C)O)C(=O)N1)[C@@H](C)O)C(=O)N[C@@H](CC(C)C)C(=O)N1CCC[C@H]1C(=O)N1CCC[C@H]1C(=O)N[C@H](C(=O)N[C@@H](CC(N)=O)C(=O)N[C@H](C(=O)NCC(=O)N[C@@H](CO)C(=O)N[C@@H](CC(N)=O)C(=O)N[C@H](C(=O)N1CCC[C@H]1C(N)=O)[C@@H](C)O)C(C)C)[C@@H](C)O` [PD046] (H-RCNTATCATQRLAEFL[Orn]HSSNNLK([γGlu-C20 diacid])PILPPTNVGSNTP-NH2; disulfide 2-7 (inferred); N-terminus assumed), the EC50 [1] is reported as 1.68 nM, the Dissolution property [2] is reported as “Clear” and the Freeze storage property [2] is reported as “Clear”. For the same molecule, the Freeze storage yield [2] was 101.35%.

In the case of `CC[C@H](C)[C@H](NC(=O)[C@H](CCCCNC(=O)COCCOCCNC(=O)CC[C@H](NC(=O)CCCCCCCCCCCCCCCCCCC(=O)O)C(=O)O)NC(=O)CNC(=O)[C@H](CC(C)C)NC(=O)[C@H](CC(N)=O)NC(=O)[C@H](CC(N)=O)NC(=O)[C@H](CO)NC(=O)[C@H](CO)NC(=O)[C@H](Cc1c[nH]cn1)NC(=O)[C@H](CCCNC(=N)N)NC(=O)[C@H](CC(C)C)NC(=O)[C@H](Cc1ccccc1)NC(=O)[C@H](CC(=O)O)NC(=O)[C@H](C)NC(=O)[C@H](CC(C)C)NC(=O)[C@H](CCCNC(=N)N)NC(=O)[C@H](CCC(N)=O)NC(=O)[C@@H](NC(=O)[C@H](C)NC(=O)[C@@H]1CSSC[C@H](NC(=O)[C@@H](N)CCCNC(=N)N)C(=O)N[C@@H](CC(N)=O)C(=O)N[C@@H]([C@@H](C)O)C(=O)N[C@@H](C)C(=O)N[C@@H]([C@@H](C)O)C(=O)N1)[C@@H](C)O)C(=O)N[C@@H](CC(C)C)C(=O)N1CCC[C@H]1C(=O)N1CCC[C@H]1C(=O)N[C@H](C(=O)N[C@@H](CC(N)=O)C(=O)N[C@H](C(=O)NCC(=O)N[C@@H](CO)C(=O)N[C@@H](CC(N)=O)C(=O)N[C@H](C(=O)N1C[C@H](O)C[C@H]1C(N)=O)[C@@H](C)O)C(C)C)[C@@H](C)O` [PD120] (H-RCNTATCATQRLADFLRHSSNNLGK([AEEA-γGlu-C20 diacid])ILPPTNVGSNT[Hyp]-NH2; disulfide 2-7 (inferred); N-terminus assumed), the EC50 [1] is reported as 0.023 nM, the Dissolution property [2] is reported as “Clear” and the Freeze storage property [2] is reported as “Clear”. It also gave a Freeze storage yield [2] of 103.41%.
